Experimental data taken from ChEMBL document CHEMBL1134432 (Bioorg Med Chem Lett, 2001).

Columns and labels:
[1] = target: T1, 5-hydroxytryptamine receptor 1A (Homo sapiens, UniProt P08908); experiment: Binding affinity towards human 5-hydroxytryptamine 1A receptor was determined using [3H]8-OH-DPAT-as radioligand
T1 sequence (P08908 whole entry): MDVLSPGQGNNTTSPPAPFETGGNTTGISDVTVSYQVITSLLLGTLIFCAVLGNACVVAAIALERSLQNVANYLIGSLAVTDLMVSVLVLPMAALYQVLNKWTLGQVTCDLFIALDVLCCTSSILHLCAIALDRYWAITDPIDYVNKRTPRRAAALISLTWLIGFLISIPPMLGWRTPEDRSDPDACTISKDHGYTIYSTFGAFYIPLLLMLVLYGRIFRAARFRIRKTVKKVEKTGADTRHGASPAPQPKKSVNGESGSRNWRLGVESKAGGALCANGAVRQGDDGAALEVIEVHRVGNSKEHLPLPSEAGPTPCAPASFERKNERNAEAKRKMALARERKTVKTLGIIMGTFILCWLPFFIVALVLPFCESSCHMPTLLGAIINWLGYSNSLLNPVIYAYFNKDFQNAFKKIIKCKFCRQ

[2] = tested on: Rattus norvegicus; experiment: Percentage of animals failed to emit 50 responses within 5 min at 0.125 umol/kg in LSD-trained rats; format: functional
[3] = target: T2, 5-hydroxytryptamine receptor 2C (Rattus norvegicus, UniProt P08909); experiment: Binding affinity towards rat 5-hydroxytryptamine 2C receptor was determined using [125I]- DOI as radioligand
T2 sequence (P08909 whole entry): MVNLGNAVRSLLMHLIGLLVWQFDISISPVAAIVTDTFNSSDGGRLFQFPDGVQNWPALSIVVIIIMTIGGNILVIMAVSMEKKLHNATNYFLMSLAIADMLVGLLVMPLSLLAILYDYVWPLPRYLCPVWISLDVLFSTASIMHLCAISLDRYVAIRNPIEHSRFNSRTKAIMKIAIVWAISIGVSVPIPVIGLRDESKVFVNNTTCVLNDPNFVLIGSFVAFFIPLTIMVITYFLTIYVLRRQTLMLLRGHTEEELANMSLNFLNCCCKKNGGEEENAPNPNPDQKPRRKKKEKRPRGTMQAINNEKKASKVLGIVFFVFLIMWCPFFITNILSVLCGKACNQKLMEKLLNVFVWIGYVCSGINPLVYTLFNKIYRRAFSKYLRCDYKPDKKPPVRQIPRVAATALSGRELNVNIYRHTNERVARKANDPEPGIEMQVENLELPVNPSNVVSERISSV

[4] = tested on: Rattus norvegicus; experiment: Percentage of animals tested that selected the training compound appropriate level at 0.25 umol/kg in LY-293284-trained rats; format: functional
[5] = tested on: Rattus norvegicus; experiment: Percentage of animals failed to emit 50 responses within 5 min at 0.25 umol/kg in LSD-trained rats; format: functional
[6] = tested on: Rattus norvegicus; experiment: Percentage of animals failed to emit 50 responses within 5 min at 0.25 umol/kg in DOI-trained rats; format: functional
[7] = tested on: Rattus norvegicus; experiment: Percentage of animals tested that selected the training compound appropriate level at 0.25 umol/kg in LSD-trained rats; format: functional
[8] = tested on: Rattus norvegicus; experiment: Percentage of animals failed to emit 50 responses within 5 min at 0.5 umol/kg in LY-293284-trained rats; format: functional
[9] = tested on: Rattus norvegicus; experiment: Percentage of animals tested that selected the training compound appropriate level at 0.063 umol/kg in LY-293284-trained rats; format: functional
[10] = tested on: Rattus norvegicus; experiment: Percentage of animals failed to emit 50 responses within 5 min at 1 umol/kg in LSD-trained rats; format: functional
[11] = tested on: Rattus norvegicus; experiment: Percentage of animals failed to emit 50 responses within 5 min at 0.5 umol/kg in DOI-trained rats; format: functional
[12] = tested on: Rattus norvegicus; experiment: Percentage of animals tested that selected the training compound appropriate level at 1 umol/kg in LY-293284-trained rats; format: functional
[13] = tested on: Rattus norvegicus; experiment: Percentage of animals tested that selected the training compound appropriate level at 0.5 umol/kg in LSD-trained rats; format: functional
[14] = tested on: Rattus norvegicus; experiment: Percentage of animals tested that selected the training compound appropriate level at 0.25 umol/kg in DOI-trained rats; format: functional
[15] = tested on: Rattus norvegicus; experiment: Percentage of animals tested that selected the training compound appropriate level at 0.5 umol/kg in DOI-trained rats; format: functional
[16] = tested on: Rattus norvegicus; experiment: Percentage of animals failed to emit 50 responses within 5 min at 1 umol/kg in LY-293284-trained rats; format: functional
[17] = tested on: Rattus norvegicus; experiment: Percentage of animals failed to emit 50 responses within 5 min at 0.25 umol/kg in LY-293284-trained rats; format: functional
[18] = tested on: Rattus norvegicus; experiment: Percentage of animals failed to emit 50 responses within 5 min at 0.5 umol/kg in LSD-trained rats; format: functional
[19] = tested on: Rattus norvegicus; experiment: Percentage of animals tested that selected the training compound appropriate level at 1 umol/kg in LSD-trained rats; format: functional
[20] = tested on: Rattus norvegicus; experiment: Percentage of animals failed to emit 50 responses within 5 min at 0.125 umol/kg in DOI-trained rats; format: functional
[21] = tested on: Rattus norvegicus; experiment: Percentage of animals tested that selected the training compound appropriate level at 0.5 umol/kg in LY-293284-trained rats; format: functional
[22] = tested on: Rattus norvegicus; experiment: Percentage of animals failed to emit 50 responses within 5 min at 0.063 umol/kg in LY-293284-trained rats; format: functional
[23] = tested on: Rattus norvegicus; experiment: Percentage of animals tested that selected the training compound appropriate level at 0.125 umol/kg in LSD-trained rats; format: functional
[24] = tested on: Rattus norvegicus; experiment: Percentage of animals tested that selected the training compound appropriate level at 0.125 umol/kg in DOI-trained rats; format: functional
[25] = tested on: Rattus norvegicus; experiment: Percentage of animals tested that selected the training compound appropriate level at 0.125 umol/kg in LY-293284-trained rats; format: functional
[26] = target: 5-hydroxytryptamine receptor 2A (Rattus norvegicus, UniProt P14842); experiment: Binding affinity towards rat 5-hydroxytryptamine 2A receptor was determined using [125I]- DOI as radioligand
[27] = tested on: Rattus norvegicus; experiment: Percentage of animals failed to emit 50 responses within 5 min at 0.125 umol/kg in LY-293284-trained rats; format: functional
[28] = species: Rattus norvegicus; experiment: Effective concentration required to determined hallucinogen-like activity in LSD-trained rats; format: functional

5-hydroxytryptamine receptor 2A, sequence (P14842 whole entry): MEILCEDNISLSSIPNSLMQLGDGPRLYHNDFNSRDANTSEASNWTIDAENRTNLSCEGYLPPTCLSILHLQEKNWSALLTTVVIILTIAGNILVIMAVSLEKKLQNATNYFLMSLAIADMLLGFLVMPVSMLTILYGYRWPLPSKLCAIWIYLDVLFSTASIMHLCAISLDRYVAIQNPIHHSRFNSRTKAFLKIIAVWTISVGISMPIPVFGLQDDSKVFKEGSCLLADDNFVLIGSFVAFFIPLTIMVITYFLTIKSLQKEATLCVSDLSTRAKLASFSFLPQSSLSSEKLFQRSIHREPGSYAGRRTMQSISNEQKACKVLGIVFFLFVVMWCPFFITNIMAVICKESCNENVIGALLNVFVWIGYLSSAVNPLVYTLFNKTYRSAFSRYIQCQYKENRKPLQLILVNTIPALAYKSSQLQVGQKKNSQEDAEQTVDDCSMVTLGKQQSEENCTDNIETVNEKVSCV

With `COc1ccc2[nH]cc(CCN(C)C)c2c1F` the Ki [1] was 0.00023 µM.

`COc1ccc2[nH]cc(CCN3CCCC3)c2c1F` gave a D [2] of 10%, a Ki [3] of 0.14 µM and an SDL [4] of 100%. It also gave a D [5] of 53%, a D [6] of 30% and an SDL [7] of 57%. It also gave a D [8] of 66.6%, an SDL [9] of 25% and a D [10] of 78%. It also gave a D [11] of 50%, an SDL [12] of 100% and a Ki [1] of 0.00012 µM. The SDL [13] was 75%, the SDL [14] was 29% and the SDL [15] was 50%. For the same compound, the D [16] was 90%, the D [17] was 12.5% and the D [18] was 60%. The SDL [19] was 67%, the D [20] was 22% and the SDL [21] was 100%. The D [22] was 0%, the SDL [23] was 11% and the SDL [24] was 0%. For the same compound, the SDL [25] was 66.6%, the Ki [26] was 0.13 µM and the D [27] was 10%.

`COc1cc(CC(C)N)c(OC)cc1I` (stereo unspecified) showed an ED50 [28] of 0.29 µmol/kg.

`CCCN(CCC)C1CCc2cccc(O)c2C1` (stereo unspecified) [8-OH-DPAT] gave an ED50 [28] of 0.099 µmol/kg.

`CCN(CC)C(=O)[C@@H]1C=C2c3cccc4[nH]cc(c34)C[C@H]2N(C)C1` [LYSERGIDE] was tested, and the ED50 [28] was 0.026 µmol/kg.
